Assay results published in patent US6576239B1, “Angiogenic homing molecules and conjugates derived therefrom” (The Burnham Institute, priority 1996, dated 2003).
Read-outs that look alike come from different tables or passages of the source. No end group written: not given here.

What was measured:
[1] = system: MDA-MB-435 human breast carcinoma cells; format: cell-based; settings: for cell killing: agents not removed after 30 min, 24 hr
Procedure: MDA-MB-435 human breast carcinoma cells were plated at 1×10^5 cells/well in 96 well plates. Cells were incubated with increasing amounts of doxorubicin, the doxorubicin/[…] (SEQ ID NO: 1) conjugate, or the doxorubicin/GACVFSIAHECGA (SEQ ID NO: 19; control) conjugate (0.1 to 10 μg/well of doxorubicin-equivalent) for either 30 min or overnight. […] The number of surviving cells was determined at 24hours with crystal violet staining (see Koivunen et al., supra, 1994).

[2] = Acute toxicity in mice bearing extremely large tumors
[3] = system: MDA-MB-435 breast carcinoma; test: Tumor therapy of breast tumor bearing mice with doxorubicin/peptide conjugates; format: in vivo, BALB/c nu/nu mice; settings: for gross examination of tumors (skin ulceration, tumor necrosis): 5 μg doxorubicin equivalent; for effect on tumor growth: relative to treatment with the vehicle, alone
Procedure: Female 2-month old BALB/c nu/nu mice (Harlan Sprague Dawley; San Diego Calif.) were used for these studies and were cared for according to the Burnham Institute animal facility guidelines. MDA-MB-435 breast carcinoma cells (Price et al., Cancer Res. 50:717-721 (1993)) were injected in the mammary fat pad of the nude mice and tumor growth was monitored (Pasqualini et al., supra, 1997). Tumors were allowed to grow to a size of about 1 cm^3 (about 5% of the mouse's body weight) before starting the treatment experiments, except for the toxicity experiments as discussed below.
Weekly doxorubicin/peptide conjugate or control treatments (5 μg/mouse/week of doxorubicin-equivalent) were administered intravenously. In some experiments, as indicated, a dose of 30 μg/mouse was administered every 3 weeks. Treatment with doxorubicin, alone, is referred to as “dox control” and treatment with doxorubicin conjugated to the non-tumor homing control peptide, […] As an additional control, in some experiments the tumor homing peptide was mixed with doxorubicin, without linking, and the mixture was administered to tumor bearing mice. Such treatment produced results that were not statistically different from those obtained with the above described dox controls.
Mice were anesthetized with a tribromoethanol-based anesthetic mixture (AVERTIN; Papaioannou and Fox, Lab. Anim. 43:189-192 (1993)) before each treatment. Anesthetization facilitated the tail vein injections (final volume, 200 μl) and allowed precise serial three dimensional tumor size measurements. Tumor volume calculations were based on the equation for the volume of an ovaloid: V= 4/3 (Πabc), where a, b, and c are ½ of the measured diameters in each of the three dimensions.

breast tumor [4] = test: Competition of phage tumor homing by coinjection of free peptide; format: in vivo, mice; settings: for effect of coinjected free peptide on homing of CDCRGDCFC phage: coinjection with CDCRGDCFC (RGD) phage; for effect of co-injected peptide on accumulation of NGR phage in breast carcinoma xenografts: phage expressing CNGRCVSGCAGRC, NGRAHA or CVLNGRMEC
Description: Selective homing can be distinguished from nonspecific binding, however, by detecting differences in the abilities of different individual phage to home to a tumor. For example, selective homing can be identified by combining a putative tumor homing molecule such as a peptide expressed on a phage with a large excess of non-infective phage or with about a five-fold excess of phage expressing unselected peptides, injecting the mixture into a subject and collecting a sample of the tumor. […] In addition, nonspecific localization can be distinguished from selective homing by performing competition experiments using, for example, phage expressing a putative tumor homing peptide in combination with an excess amount of the “free” peptide (Example IV).
The various peptides, including RGD- and NGR-containing peptides, generally were bound to the tumor blood vessels. The minimal cyclic NGR peptide, CNGRC (SEQ ID NO: 8), was synthesized based on the CNGRCVSGCAGRC (SEQ ID NO: 3) sequence. When the CNGRC (SEQ ID NO: 8) peptide was co-injected with phage expressing either CNGRCVSGCAGRC (SEQ ID NO: 3), NGRAHA (SEQ ID NO: 6) or CVLNGRMEC (SEQ ID NO: 7), accumulation of the phage in the breast carcinoma xenografts was inhibited. […] (SEQ ID NO: 1) peptide, even when administered in amounts up to ten times higher than those that inhibited the homing of the NGR phage. In comparison, the […]

human αv-integrins = settings: cited from earlier work
B16B15b mouse melanoma = test: In vivo panning against a melanoma tumor; set-up: species or system mice; settings: 89 cloned phage recovered from B16B15b tumors after three rounds
Procedure: Tumors were transplanted into mice as described in Examples II and III, below. A mixture of phage libraries containing 1×10^9 to 1×10^14 TU was diluted in 200 μl DMEM and injected into the tail vein of anesthetized mice (AVERTIN (0.015 ml/g); see U.S. Pat. No. 5,622,699; Pasqualini and Ruoslahti, supra, 1996). After 1-4 minutes, mice were snap frozen in liquid nitrogen. To recover the phage, carcasses were partially thawed at room temperature for 1 hr, tumors and control orqans were collected and weighed, then were ground in 1 ml DMEM-PI (DMEM containing protease inhibitors (PI); phenylmethylsulfonyl fluoride (PMSF; 1 mM), aprotinin (20 μg/ml), leupeptin (1 μg/ml)).
Individual colonies containing phage recovered from a tumor were grown for 16 hr in 5 ml NZY/tet. The bacterial cultures obtained from the individual colonies were pooled and the phage were purified and re-injected into mice as described above for a second round of in vivo panning. In general, a third round of panning also was performed. Phage DNA was purified from individual bacterial colonies obtained from the final round of in vivo panning and the DNA sequences encoding the peptides expressed by selected phage were determined (see Koivunen et al., supra, 1994b).
Mice bearing a melanoma were produced by implantation of B16B15b mouse melanoma cells, which produce highly vascularized tumors. […]

[5] = system: Human 435 breast carcinoma tumor; test: In vivo targeting of phage expressing a peptide to a tumor (phage quantitated in organs); set-up: species or system mice; settings: mouse melanoma, human Kaposi's sarcoma xenograft
Procedure: Human 435 breast carcinoma cells were inoculated into the mammary fat pad of nude mice. When the tumors attained a diameter of about 1 cm, phage expressing a specific RGD-containing peptide were administered to the tumor bearing mouse. Similar results
1×10^9 phage expressing the RGD-containing peptide, […] (SEQ ID NO: 1; see, Koivunen et al., supra, 1995) or control (insertless) phage were injected intravenously (iv) into the mice and allowed to circulate for 4 min. The mice then were snap frozen or perfused through the heart while under anesthesia, and various organs, including tumor, brain and kidney, were removed and the phage present in the organs was quantitated (see U.S. Pat. No. 5,622,699; Pasqualini and Ruoslahti, supra, 1996).
Approximately 2-3 times more phage expressing the […] (SEQ ID NO: 1) peptide were detected in the breast tumor as compared to brain and kidney, indicating the […] […] In a parallel study, unselected phage, which express various, diverse peptides, were injected into tumor-bearing mice and various organs were examined for the presence of phage. Far more phage were present in kidney and, to a lesser extent, brain, as compared to the tumor. Thus, the 80-fold more RGD-expressing phage than unselected phage concentrated in the tumor.

breast tumor [6] = test: Viability of tumor cells obtained from tumors of treated mice; format: in vivo; settings: 30 μg equivalent iv, tumors removed after five days, cells counted 24 hours and 7 days after plating
Procedure: In addition, the viability of tumor cells obtained from tumors of mice treated with a tumor homing peptide/doxorubicin conjugate was compared to that of tumors from mice treated with free doxorubicin. In these experiments, breast tumor bearing mice were size matched with regard to the tumors, then treated intravenously with 30 μg equivalent of doxorubicin/CDCRGDCFC (SEQ ID NO: 1) or of free doxorubicin. Five days after treatment, the mice were euthanized and the tumors were removed. The tumor pairs were weighed and ground and the cell suspensions were plated (2 g tumor tissue per 150 mm plate).
Cell numbers were determined at 24 hours and 7 days after plating. Viability of tumor cells from the tumors of mice receiving the doxorubicin/CDCRGDCFC (SEQ ID NO: 1) conjugate was about 3 fold less than cells from tumors of mice treated with the free doxorubicin.

[7] = 30 min exposure, 0.1 to 10 μg/well doxorubicin-equivalent, survivors counted at 24 hours
[8] = 200 μg/mouse, tumors about 25% of body weight
[9] = 5 μg/mouse/week doxorubicin-equivalent iv
[10] = 5 μg/mouse/week iv, t test, p<0.0001

## COc1cccc2c1C(=O)c1c(O)c3c(c(O)c1C2=O)C[C@@](O)(C(=O)CO)C[C@@H]3O[C@H]1C[C@H](N)[C@H](O)[C@H](C)O1 [doxorubicin, reference compound]
[1]; [7]
  cell death: cell death was present only in the cultures treated with the doxorubicin/[…]
[1]
  cell killing: the cells were killed by all of the treatments
[2]; [8]
  time to death after treatment: ≤ 48 h
[3]
  gross examination of tumors (skin ulceration, tumor necrosis): no such signs were observed
  effect on tumor growth: essentially no effect on tumor growth

## ACDCRGDCFCG
Breast tumor [4]; 500 μg free peptide coinjected with phage expressing CDCRGDCFC
  effect of coinjected free peptide on amount of RGD phage in the tumor: reduced the amount of phage in the tumor by about tenfold

## CDCRGDCFC
Breast tumor [4]
  effect of coinjected free peptide on homing of CDCRGDCFC phage: greatly reduced tumor homing of the RGD phage
  effect of co-injected peptide on accumulation of NGR phage in breast carcinoma xenografts: partially inhibited
Breast tumor [4]; higher than that of the CNGRC peptide
  amount needed to inhibit homing of NGR phage relative to CNGRC peptide: 5 to 10 fold
Human αv-integrins
  binding to human αv-integrins: binds to human αv-integrins

## CGSLVRC
Breast tumor [4]; mouse, in vivo
  effect of coadministered free peptide on homing of CGSLVRC phage: inhibited

## CLSGSLSC
B16B15b mouse melanoma
  share of the clones sequenced: 52%
[5]
  tumor homing of phage/peptide: also homed to a breast tumor and to Kaposi's sarcoma

## CNGRC
Breast tumor [4]
  effect of coinjected free peptide on homing of CDCRGDCFC phage: did not inhibit
  effect of co-injected peptide on accumulation of NGR phage in breast carcinoma xenografts: inhibited

## CNGRCVSGCAGRC
[5]
  tumor homing of phage/peptide: also homed in vivo to a melanoma and to a Kaposi's sarcoma, but not to nontumor tissues

## GRGESP [reference compound]
Breast tumor [4]; 500 μg free peptide coinjected with phage expressing […]
  effect of coinjected free peptide on amount of RGD phage in the tumor: essentially had no effect

## WGTGLC
B16B15b mouse melanoma
  share of the clones sequenced: 25%

## doxorubicin/CDCRGDCFC: doxorubicin coupled by EDC/NHS to the tumor homing peptide CDCRGDCFC (SEQ ID NO: 1) (cysteine pairing not given here; also: doxorubicin conjugate via EDC/NHS, site not given here)
Breast tumor [6]
  viability of tumor cells, fold less than after free doxorubicin: about 3 fold
[1]; [7]
  cell death: cell death was present
[1]
  cell killing: the cells were killed by all of the treatments
[2]; [8]
  survival after treatment: survived for longer than one week
[3]
  gross examination of tumors (skin ulceration, tumor necrosis): marked skin ulceration and tumor necrosis
[3]; [9]
  survival: survived beyond the time when the dox control and conjugate control mice had died
  tumor size compared with control groups: significantly smaller tumors
[3]; [10]
  pulmonary metastasis vs dox control: a lower incidence of pulmonary metastasis and fewer metastatic lesions
  spread to regional lymph nodes vs dox control: less spread to regional lymph nodes
[3]; compared to the dox control group
  histopathological analysis of tumor vasculature: pronounced destruction of the vasculature in the tumors
[3]; dose escalation, 30 μg/mouse every three weeks for three cycles
  time remaining alive after dox control and conjugate control mice had died: more than 6 months

## doxorubicin/CNGRC (cysteine pairing not given here; also: doxorubicin conjugate)
[2]; mouse, in vivo
  toxicity relative to free doxorubicin: less toxic than free doxorubicin
[3]; [9]
  survival: marked effect on survival
  tumor size compared with control groups: significantly smaller
[3]
  effect on tumor growth: almost completely suppressed tumor growth

## doxorubicin/GACVFSIAHECGA: doxorubicin conjugated to the non-tumor homing control peptide GACVFSIAHECGA (SEQ ID NO: 19) (cysteine pairing not given here; also: doxorubicin conjugate) [reference compound]
[1]
  cell death: cell death was present only in the cultures treated with the doxorubicin/[…]
  cell killing: the cells were killed by all of the treatments
[3]
  gross examination of tumors (skin ulceration, tumor necrosis): no such signs were observed
  effect on tumor growth: essentially no effect on tumor growth
[3]; [9]
  results as compared to dox control groups: not significantly different
